Inhibition data for 5 molecules are collected here from article PMC12736255, “Reinvestigating Pyrrol-2-One-Based Compounds: From Antimicrobial Agents to Promising Antitumor Candidates” (Pharmaceuticals, 2025).

What all share (assay): NCI-60 single-dose screen
Common to all, as to assay type: cell-based

For one experiment, the system named is HT-29. Conditions: Homo sapiens; HT-29, 10^–5 M; read-out: GI (%). A digest of the protocol:
(§1)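 Single dose, 10^−5 M; NCI 60-cell human tumor panel (leukemia, melanoma, lung, colon, CNS, ovary, kidney, prostate, breast).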

Another experiment concerns SF-268. The settings on record: Homo sapiens; SF-268, 10^–5 M; read-out: GI (%). A digest of the protocol:
as §1

In another experiment the test system is MALME-3M. The settings on record: Homo sapiens, 10^–5 M, read-out: GI (%). A digest of the protocol: as §1
The next experiment relates to MOLT-4. Conditions: Homo sapiens; MOLT-4, 10^–5 M; read-out: GI (%). A digest of the protocol: as §1
For a further experiment, the system named is DU-145. The settings on record: Homo sapiens; DU-145, 10^–5 M; read-out: GI (%). Put shortly: as §1
The next experiment relates to ACHN. Conditions: Homo sapiens, 10^–5 M, read-out: GI (%). Put shortly: as §1
In another experiment the test system is HS 578T. Conditions: Homo sapiens, 10^–5 M, read-out: GI (%). Put shortly: as §1
In a further experiment the test system is RPMI-8226. The settings on record: Homo sapiens; RPMI-8226, 10^–5 M; read-out: GI (%). Put shortly:
as §1

For a further experiment, the system named is MDA-MB-435. Conditions: Homo sapiens; MDA-MB-435, 10^–5 M; read-out: GI (%). Put shortly: as §1
In another experiment the test system is T-47D. Conditions: Homo sapiens, T47D, 10^–5 M, read-out: GI (%). Put shortly: as §1
A further experiment has as its system M14. Conditions: Homo sapiens; M14, 10^–5 M; read-out: GI (%). A digest of the protocol: as §1
Another experiment relates to TK-10. The settings on record: Homo sapiens; TK-10, 10^–5 M; read-out: GI (%). A digest of the protocol:
as §1

The test system of another experiment is SR. Conditions: Homo sapiens, 10^–5 M, read-out: GI (%). A digest of the protocol:
as §1

The subject of another experiment is OVCAR-4. The settings on record: Homo sapiens; OVCAR-4, 10^–5 M; read-out: GI (%). Put shortly:
as §1

For the next experiment, the system named is NCI-H460. Conditions: Homo sapiens; NCI-H460, 10^–5 M; read-out: GI (%). Put shortly: as §1
For a further experiment, the system named is NCI-H522. The settings on record: Homo sapiens; NCI-H522, 10^–5 M; read-out: GI (%). Put shortly: as §1

Molecules are shown by their SMILES.

Regarding `O=C1C(Nc2ccc(I)cc2)=CC(c2ccccc2)N1c1ccc(I)cc1` (centres unmarked) [3a], the inhibition at 10 µM stood at 0% in the experiment with HT-29; 16% in the experiment on SF-268; 0% with MALME-3M; 2% in the experiment on MOLT-4; 0% in the experiment with DU-145; 13% in the experiment on ACHN. Moreover, the inhibition at 10 µM in the experiment with HS 578T is 71%; with RPMI-8226, 100%; in the experiment on MDA-MB-435, 0%; in the experiment on T-47D, 34%; in the experiment with M14, 0%; in the experiment with TK-10, 12%. Besides, the inhibition at 10 µM was determined as 44% with SR, 20% with OVCAR-4, 1% in the experiment on NCI-H460 and 50% in the experiment on NCI-H522.
As for `O=C1C(Nc2ccc(I)cc2)=CC(c2ccc(F)cc2)N1c1ccc(I)cc1` (centres unmarked) [3b], the inhibition at 10 µM in the experiment on HT-29 is 16%; in the experiment on SF-268, 68%; with MALME-3M it was 6%; in the experiment with MOLT-4 it was 66%; in the experiment on DU-145 it was 9%; in the experiment on ACHN, 35%. Besides, the inhibition at 10 µM in the experiment on HS 578T is 90%; in the experiment on RPMI-8226 it was 35%; with MDA-MB-435, 0%; in the experiment with T-47D it was 32%; in the experiment with M14, 4%; in the experiment with TK-10, 27%. Also, the inhibition at 10 µM with SR came to 92%; in the experiment with OVCAR-4, 38%; with NCI-H460, 17%; with NCI-H522, 26%.
Regarding `O=C1C(Nc2ccc(I)cc2)=CC(c2ccc(Cl)cc2)N1c1ccc(I)cc1` (centres unmarked) [3c], the inhibition at 10 µM with HT-29 was 19%; in the experiment on SF-268 it was 24%; in the experiment with MALME-3M, 17%; in the experiment on MOLT-4 it was 29%; with DU-145 it was 10%; in the experiment with ACHN it was 21%. The inhibition at 10 µM came out at 55% with HS 578T; 30% in the experiment with RPMI-8226; 0% in the experiment on MDA-MB-435; 48% in the experiment with T-47D; 0% in the experiment with M14; 1% in the experiment with TK-10. In addition, the inhibition at 10 µM in the experiment with SR was 41%; in the experiment on OVCAR-4, 34%; in the experiment on NCI-H460 it was 7%; in the experiment on NCI-H522, 24%.
In the case of `O=C1C(Nc2ccc(I)cc2)=CC(c2ccc(Br)cc2)N1c1ccc(I)cc1` (centres unmarked) [3d], the inhibition at 10 µM with HT-29 worked out at 14%; with SF-268 it was 15%; with MALME-3M, 0%; in the experiment with MOLT-4, 20%; with DU-145, 0%; in the experiment with ACHN, 15%. The inhibition at 10 µM with HS 578T worked out at 41%; in the experiment with RPMI-8226 it was 34%; with MDA-MB-435, 0%; in the experiment with T-47D, 49%; with M14, 0%; in the experiment with TK-10 it was 0%. The inhibition at 10 µM came to 0% in the experiment on SR, 30% in the experiment on OVCAR-4, 0% in the experiment on NCI-H460 and 2% in the experiment with NCI-H522.
On to `O=C1C(Nc2ccc(I)cc2)=CC(c2cc(C(F)(F)F)cc(C(F)(F)F)c2)N1c1ccc(I)cc1` (centres unmarked) [3f], for which the inhibition at 10 µM in the experiment with HT-29 was 5%; in the experiment on SF-268, 21%; with MALME-3M it was 0%; in the experiment with MOLT-4 it was 89%; with DU-145, 5%; with ACHN, 49%. Further, the inhibition at 10 µM was determined as 100% in the experiment with HS 578T; 43% in the experiment on RPMI-8226; 0% in the experiment with MDA-MB-435; 100% with T-47D; 0% with M14; 57% in the experiment on TK-10. In addition, the inhibition at 10 µM worked out at 47% with SR, 69% in the experiment with OVCAR-4, 35% with NCI-H460 and 34% in the experiment with NCI-H522.
